{"source": "patent US20250367121A1", "about": "“DOSAGE FORMS COMPRISING ACTIVE PHARMACEUTICAL INGREDIENTS” (AXSOME THERAPEUTICS, INC., priority 2018, published 2025)", "assay": "clinical", "conditions": "human, in vivo", "data": [{"smiles": "CN(C)CCc1c[nH]c2ccc(Cn3cncn3)cc12", "note": "[Rizatriptan, rizatriptan]", "values": [{"measurement": "Cmax", "result": 20.7, "unit": "ng/mL"}, {"measurement": "Tmax", "result": 45, "unit": "min"}]}]}
